# Source: patent publication US10835470B2, “Cosmetics composition containing ginsenoside as active ingredient” (AMOREPACIFIC CORPORATION, priority 2015, dated 2020)
# Columns and labels:
# [1] = tested on: tyrosinase enzyme extracted from mushrooms; assay: Tyrosinase inhibitory effect, absorbance at 475 nm; format: biochemical; conditions: mushroom tyrosinase, tyrosine substrate, 37° C., concentration of test substance not given
# Description: The tyrosinase enzyme was extracted from mushrooms and obtained from Sigma (SIGMA). First, tyrosine as a substrate was dissolved in distilled water to prepare 0.3 mg/ml of a solution. The solution was placed by 1.0 ml in a test tube, and then 1.0 ml of potassium phosphate buffer solution (concentration 0.1 mol, PH 6.8) and 0.7 ml of distilled water were added to prepare a reaction solution.
# 0.2 ml of the test substance was placed in the reaction solution, and then the mixture was allowed to react in a thermostatic chamber at 37° C. for 10 minutes. At this time, as a negative control group (no addition), that obtained by adding 0.2 ml of only solvent in place of each test substance was prepared. As a positive control group, ascorbic acid was used. 2500 unit/ml of tyrosinase solution was added by 0.1 ml to the reaction solution, and the mixture was reacted again in a thermostatic chamber at 37° C. for 10 minutes. The test tube containing this reaction solution was placed in ice water and quenched to stop the reaction. Absorbance at a wavelength of 475 nm was measured with a photoelectron spectrometer. Each tyrosinase inhibitory effect was calculated by Mathematical Equation 1 below. The tests were conducted on ginsenoside Rd and compound O, respectively. Tyrosinase inhibition rate (%)=100−[{(Reaction absorbance of test substance)/(Reaction absorbance of negative control group)}×100] […]
# [2] = tested on: B16/F10 melanoma cells; assay: Inhibition of melanin production in B16/F10 melanoma cells; format: cell-based, mouse; conditions: 72 hours, concentration not given
# Text: The B16/F10 melanoma used in this test example is a cell line derived from a mouse and is a cancer cell caused by malignant alteration of a cell secreting a black pigment called melanin. The extent to which and melanin production was decreased by treating the test substance during artificial cultivation of this cell was compared and evaluated. The B16/F10 melanoma used in this test example was purchased from the Korean Cell Line Bank (KCLB No: 8008) and used. Measurement of melanin biosynthesis inhibitory effect of B16/F10 melanoma was carried out as follows. B16/F10 melanoma was dispensed in a 6-well plate (5×10^5/well) and cultured in DMEM (Dulbecco's Modified Eagle's Medium) containing 10% FBS (fetal bovine serum) for about 24 hours at 37° C. in a 5% CO2 incubator (MCO-20 AIC, Sanyo). The test substance was added to a new DMEM medium not containing FBS and allowed to stand for 72 hours. […] Absorbance was measured at 405 nm using an ELISA reader (DIbiotech, Korea). […] In comparison with the melanin content in the control group, the degree of inhibition of melanin production of each test substance was measured. […] Melanin production inhibition rate was calculated according to Mathematical Equation 2 below, and the results are shown in Table 4. Melanin production inhibition rate (%)=100−[{(Absorbance of test substance)/(Absorbance of control group)}×100] […]
# [3] = tested on: keratinocytes (cell line: HaCaT); assay: Inhibition of UVB-induced reactive oxygen species (ROS) generation, DCF-DA fluorescence; format: cell-based
# Description: 5×10^4 keratinocytes (cell line: HaCaT; obtained from: ATCC) was placed in each well of a 24-well plate and allowed to adhere for 24 hours. After 16 hours, ginsenoside Rd was treated with 1%. […] After 2 hours, the culture solution was removed, and 100 μl of phosphate buffer saline (PBS) was added to each well. The keratinocytes were irradiated with ultraviolet rays of 30 mJ/cm^2 using an ultraviolet B (UVB) lamp (Model: […], UV B 15 W, Sankyo Denki, Japan), and then PBS was taken out and 200 μl of keratinocyte culture solution was added to each well. Herein, ginsenoside Rd was again treated and the amount of reactive oxygen species increased by ultraviolet stimulation was determined for each fixed period of time. The amount of ROS was determined by referring to Tan's method for measuring the fluorescence of DCF-DA (dichlorofluorescin diacetate) oxidized by ROS (Tan et al., 1998, J. Cell Biol. Vol. 141, pp 1423-1432). The ginsenoside Rd was replaced with Compound O, and the test was carried out in the same process.
# [4] = tested on: Escherichia coli; assay: Antibacterial activity, MIC by two-fold dilution; format: cell-based; conditions: 32° C., 48 hours
# Description: (§1) Antibacterial experiments were conducted to evaluate the antibacterial activity of ginsenoside Rd and Compound O. Specific experimental methods are as follows. The strains of Staphylococcus aureus, Escherichia coli and Pseudomonas aeruginosa used in the experiment were cultured in Trypticase Soy Broth, and the strains of Candida albicans, Aspergillus niger were cultured in Sabouraud Dextrose Broth medium. A diluted solution in which the culture solution is diluted 1/100 (Candida albicans strain 1/10) in each culture medium was used as a test strain solution. A spore suspension of Aspergillus niger (2×10^8 cfu/ml) was used as a test strain solution. A solution prepared by adding 0.15 ml of the test strain solution to 15 ml of each medium and thoroughly mixing the same was used as a diluted solution. 96 Deep well plate was placed by 16 μl ginsenoside Rd 10 ppm to 1 row and placed by 184 μl a diluted solution. The diluted solution was placed by 100 μl in the rest of the wells. The mixed solution of 1 row was thoroughly mixed and 100 μl was taken and placed in 2 row and thoroughly mixed. 100 μl was taken again and placed in 3 row. A two-fold dilution was carried out in this manner. Staphylococcus aureus, Escherichia coli and Pseudomonas aeruginosa were cultured in a thermostatic chamber at 32° C., and Candida albicans and Aspergillus niger were cultured in a thermostatic chamber at 25° C. After 48 hours, the growth of strains was checked by the degree of suspension and microscope, and the Minimum Inhibitory Concentration (MIC) value was determined. The ginsenoside Rd was replaced with Compound O, and the test was carried out in the same process.
# [5] = tested on: Aspergillus niger; assay: Antibacterial activity, MIC by two-fold dilution; format: cell-based; conditions: 25° C., 48 hours
# Description: as §1
# [6] = tested on: Staphylococcus aureus; assay: Antibacterial activity, MIC by two-fold dilution; format: cell-based; conditions: 32° C., 48 hours
# Description: as §1
# [7] = tested on: Pseudomonas aeruginosa; assay: Antibacterial activity, MIC by two-fold dilution; format: cell-based; conditions: 32° C., 48 hours
# Description: as §1
# [8] = tested on: Candida albicans; assay: Antibacterial activity, MIC by two-fold dilution; format: cell-based; conditions: 25° C., 48 hours
# Description: as §1
Structure (SMILES),Tyrosinase inhibition rate (%) [1] [%],Melanin production inhibition rate (%) [2] [%],"Amount of ROS, ratio to vehicle control ([3]; 0 hr after irradiation of UVB 30 mJ/cm^2, test substance treated with 1%)","Amount of ROS, ratio to vehicle control ([3]; 2 hr after irradiation of UVB 30 mJ/cm^2, test substance treated with 1%)","Amount of ROS, ratio to vehicle control ([3]; 3 hr after irradiation of UVB 30 mJ/cm^2, test substance treated with 1%)",Minimum Inhibitory Concentration (MIC) [4] [%],Minimum Inhibitory Concentration (MIC) [5] [%],Minimum Inhibitory Concentration (MIC) [6] [%],Minimum Inhibitory Concentration (MIC) [7] [%],Minimum Inhibitory Concentration (MIC) [8] [%]
"O=C1O[C@H]([C@@H](O)CO)C(O)=C1O [Ascorbic acid, reference compound]",56,,,,,,,,,
CC(C)=CCC[C@](C)(O[C@@H]1O[C@H](CO)[C@@H](O)[C@H](O)[C@H]1O)[C@H]1CC[C@]2(C)[C@@H]1[C@H](O)C[C@@H]1[C@@]3(C)CC[C@H](O[C@@H]4O[C@H](CO)[C@@H](O)[C@H](O)[C@H]4O[C@@H]4O[C@H](CO)[C@@H](O)[C@H](O)[C@H]4O)C(C)(C)[C@@H]3CC[C@]12C [Ginsenoside Rd],68,67,100,251,286,0.191,>3,0.07,0.25,>4
"O=c1cc(CO)occ1O [Kojic acid, reference compound]",,49,,,,,,,,
